Reference: ChEMBL document CHEMBL4311957, “Recent advances in natural antifungal flavonoids and their derivatives” (Bioorg Med Chem Lett, 2019)
In brackets after ≈: the same amount, converted by molar mass.

Experiments:
Candida albicans [1] = test: Antifungal activity against Candida albicans; type: functional, organism-based
Cryptococcus neoformans [2] = test: Antifungal activity against Cryptococcus neoformans; type: functional
Trichophyton rubrum [3] = test: Antifungal activity against Trichophyton rubrum NBRC 5467 by microdilution method; type: functional
[4] = test system: Trichophyton mentagrophytes; test: Antifungal activity against Trichophyton mentagrophytes IFM 46027 by microdilution method; type: functional
Aspergillus fumigatus [5] = test: Antifungal activity against Aspergillus fumigatus NBRC 4400 by microdilution method; type: functional
Nakaseomyces glabratus [6] = test: Antifungal activity against Candida glabrata 493 by microdilution method; type: functional
Pichia kudriavzevii = test: Antifungal activity against Candida krusei 168 by microdilution method; type: functional
Nakaseomyces glabratus [7] = test: Antifungal activity against Candida glabrata 507 by microdilution method; type: functional
Nakaseomyces glabratus [8] = test: Antifungal activity against Candida glabrata 587 by microdilution method; type: functional
Candida albicans [9] = test: Antifungal activity against Candida albicans 498 by microdilution method; type: functional
Nakaseomyces glabratus [10] = test: Antifungal activity against Candida glabrata 510 by microdilution method; type: functional
Candida albicans [11] = test: Antifungal activity against Candida albicans 53 by microdilution method; type: functional
Nakaseomyces glabratus [12] = test: Antifungal activity against Candida glabrata 531 by microdilution method; type: functional
Nakaseomyces glabratus [13] = test: Antifungal activity against Candida glabrata 482 by microdilution method; type: functional
Candida albicans [14] = test: Antifungal activity against Candida albicans ATCC 10231 by microdilution method; type: functional
Candida albicans [15] = test: Antifungal activity against Candida albicans 501 by microdilution method; type: functional
Candida parapsilosis = test: Antifungal activity against Candida parapsilosis 96 by microdilution method; type: functional; conditions: Lodderomyces parapsilosis
Candida tropicalis [16] = test: Antifungal activity against Candida tropicalis 166 by microdilution method; type: functional
Cryptococcus gattii = test: Antifungal activity against Cryptococcus gattii after 72 hrs; type: functional, Cryptococcus gattii VGI
Cryptococcus neoformans [17] = test: Antifungal activity against Cryptococcus neoformans after 72 hrs; type: functional
Trichophyton rubrum [18] = test: Antifungal activity against Trichophyton rubrum after 5 days; type: functional; conditions: 120 h
Trichophyton rubrum [19] = test: Antifungal activity against Trichophyton rubrum; type: functional
Aspergillus fumigatus [20] = test: Antifungal activity against Aspergillus fumigatus; type: functional
Candida albicans [21] = test: Antifungal activity against Candida albicans ATCC 10231 after 48 hrs by CLSI-based broth microdilution method; type: functional; conditions: ATCC 10231, 48 h
Candida tropicalis [22] = test: Antifungal activity against Candida tropicalis CCC 131-2000 after 48 hrs by CLSI-based broth microdilution method; type: functional; conditions: CCC 131-2000, 48 h
Cryptococcus neoformans [23] = test: Antifungal activity against Cryptococcus neoformans ATCC 32264 after 48 hrs by CLSI-based broth microdilution method; type: functional; conditions: ATCC 32264, 48 h
Trichophyton tonsurans = test: Antifungal activity against Trichophyton tonsurans after 5 days; type: functional; conditions: 120 h
Nannizzia gypsea = test: Antifungal activity against Microsporum gypseum after 5 days; type: functional; conditions: 120 h
Saccharomyces cerevisiae = test: Antifungal activity against Saccharomyces cerevisiae ATCC 9763 after 48 hrs by CLSI-based broth microdilution method; type: functional; conditions: ATCC 9763, 48 h
[24] = test system: Trichophyton mentagrophytes; test: Antifungal activity against Trichophyton mentagrophytes after 5 days; type: functional; conditions: 120 h
Nakaseomyces glabratus [25] = test: Antifungal activity against Candida glabrata ATCC 90030; type: functional
Trichophyton rubrum [26] = test: Antifungal activity against Trichophyton rubrum ATCC MYA3108 by CLSI-based microdilution method; type: functional
Trichophyton rubrum [27] = test: Antifungal activity against Trichophyton rubrum deltaTruMDR2 by CLSI-based microdilution method; type: functional

| SMILES | MIC (Nakaseomyces glabratus [6]) | MIC (Pichia kudriavzevii) | MIC (Nakaseomyces glabratus [7]) | MIC (Nakaseomyces glabratus [8]) | MIC (Candida albicans [9]) | MIC (Nakaseomyces glabratus [10]) | MIC (Candida albicans [11]) | MIC (Nakaseomyces glabratus [12]) | MIC (Nakaseomyces glabratus [13]) | MIC (Candida albicans [14]) | MIC (Candida albicans [15]) | MIC (Candida parapsilosis) | MIC (Candida tropicalis [16]) | further results |
| --- | --- | --- | --- | --- | --- | --- | --- | --- | --- | --- | --- | --- | --- | --- |
| C=C(C)CC(O)c1c(O)ccc(C(=O)/C=C/c2ccc(O)cc2)c1O (stereo not given) | – | – | – | – | – | – | – | – | – | – | – | – | – | MIC50 (Candida albicans [1]): 15 µg/mL (≈ 44.1 µM); MIC50 (Cryptococcus neoformans [2]): 7 µg/mL (≈ 20.6 µM) |
| COc1c(O)cc(O)c2c(=O)cc(-c3ccccc3)oc12 [WOGONIN] | – | – | – | – | – | – | – | – | – | – | – | – | – | MIC (Trichophyton rubrum [3]): 60 µg/mL (≈ 211 µM); MIC [4]: 60 µg/mL (≈ 211 µM); MIC (Aspergillus fumigatus [5]): 230 µg/mL (≈ 809 µM) |
| C[C@@H]1O[C@@H](Oc2c(-c3cc(O)c(O)c(O)c3)oc3cc(O)cc(O)c3c2=O)[C@H](O)[C@H](O)[C@H]1O | 3.9 to 7.8 µg/mL (≈ 8.4 to 16.8 µM) | > 83 µg/mL | 3.9 to 7.8 µg/mL (≈ 8.4 to 16.8 µM) | 3.9 to 7.8 µg/mL (≈ 8.4 to 16.8 µM) | > 83 µg/mL | 3.9 to 7.8 µg/mL (≈ 8.4 to 16.8 µM) | > 83 µg/mL | 3.9 to 7.8 µg/mL (≈ 8.4 to 16.8 µM) | 3.9 to 7.8 µg/mL (≈ 8.4 to 16.8 µM) | > 83 µg/mL | > 83 µg/mL | > 83 µg/mL | > 83 µg/mL | – |
| C[C@@H]1O[C@@H](Oc2c(-c3ccc(O)c(O)c3)oc3cc(O)cc(O)c3c2=O)[C@H](O)[C@H](O)[C@H]1O [QUERCITRIN] | 7.8 to 62.5 µg/mL (≈ 17.4 to 139 µM) | > 83 µg/mL | 7.8 to 62.5 µg/mL (≈ 17.4 to 139 µM) | 7.8 to 62.5 µg/mL (≈ 17.4 to 139 µM) | > 83 µg/mL | 7.8 to 62.5 µg/mL (≈ 17.4 to 139 µM) | > 83 µg/mL | 7.8 to 62.5 µg/mL (≈ 17.4 to 139 µM) | 7.8 to 62.5 µg/mL (≈ 17.4 to 139 µM) | > 83 µg/mL | > 83 µg/mL | > 83 µg/mL | > 83 µg/mL | – |
| O=c1c(O)c(-c2ccc(O)c(O)c2)oc2cc(O)ccc12 [FISETIN] | 7.8 to 15.6 µg/mL (≈ 27.2 to 54.5 µM) | > 83 µg/mL | 7.8 to 15.6 µg/mL (≈ 27.2 to 54.5 µM) | 7.8 to 15.6 µg/mL (≈ 27.2 to 54.5 µM) | > 83 µg/mL | 7.8 to 15.6 µg/mL (≈ 27.2 to 54.5 µM) | > 83 µg/mL | 7.8 to 15.6 µg/mL (≈ 27.2 to 54.5 µM) | 7.8 to 15.6 µg/mL (≈ 27.2 to 54.5 µM) | > 83 µg/mL | > 83 µg/mL | > 83 µg/mL | > 83 µg/mL | MIC (Cryptococcus gattii): 128 µg/mL (≈ 447 µM); MIC (Cryptococcus neoformans [17]): 128 µg/mL (≈ 447 µM); MIC (Trichophyton rubrum [18]): 64 µg/mL (≈ 224 µM) |
| O=c1c(O)c(-c2ccccc2)oc2ccccc12 [FLAVONOL] | 3.9 to 15.6 µg/mL (≈ 16.4 to 65.5 µM) | > 83 µg/mL | 3.9 to 15.6 µg/mL (≈ 16.4 to 65.5 µM) | 3.9 to 15.6 µg/mL (≈ 16.4 to 65.5 µM) | > 83 µg/mL | 3.9 to 15.6 µg/mL (≈ 16.4 to 65.5 µM) | > 83 µg/mL | 3.9 to 15.6 µg/mL (≈ 16.4 to 65.5 µM) | 3.9 to 15.6 µg/mL (≈ 16.4 to 65.5 µM) | > 83 µg/mL | > 83 µg/mL | > 83 µg/mL | > 83 µg/mL | – |
| Nc1ccccc1C(=O)/C=C/c1cccc(F)c1 | – | – | – | – | – | – | – | – | – | – | – | – | – | MIC (Trichophyton rubrum [19]): 0.5 µg/mL (≈ 2.07 µM) |
| Cc1c(O)c2c(c(C(=O)/C=C/c3ccccc3)c1O)OC(C)(C)C=C2 | – | – | – | – | – | – | – | – | – | – | – | – | – | MIC (Aspergillus fumigatus [20]): 16 µg/mL (≈ 47.6 µM); MIC (Cryptococcus neoformans [2]): 4 to 8 µg/mL (≈ 11.9 to 23.8 µM) |
| O=c1c(O[C@@H]2O[C@H](CO)[C@@H](O)[C@H](O)[C@H]2O)c(-c2cc(O)c(O)c(O)c2)oc2cc(O)cc(O)c12 | – | – | – | – | – | – | – | – | – | – | – | – | – | MIC (Candida albicans [21]): 31.2 µg/mL (≈ 64.9 µM); MIC (Cryptococcus gattii): 128 µg/mL (≈ 266 µM); MIC (Candida tropicalis [22]): 31.2 µg/mL (≈ 64.9 µM); MIC (Cryptococcus neoformans [17]): 8 to 128 µg/mL (≈ 16.7 to 266 µM); MIC (Trichophyton rubrum [18]): 4 to 128 µg/mL (≈ 8.33 to 266 µM); MIC (Cryptococcus neoformans [23]): 31.2 µg/mL (≈ 64.9 µM); MIC (Trichophyton tonsurans): 4 to 128 µg/mL (≈ 8.33 to 266 µM); MIC (Nannizzia gypsea): 4 to 128 µg/mL (≈ 8.33 to 266 µM); MIC (Saccharomyces cerevisiae): 31.2 µg/mL (≈ 64.9 µM); MIC [24]: 4 to 128 µg/mL (≈ 8.33 to 266 µM); MIC (Nakaseomyces glabratus [25]): 8.53 µg/mL (≈ 17.8 µM) |
| CC(=O)c1c(O)c(C)c(O)c(Cc2c(O)c(C(=O)/C=C/c3ccc(O)cc3)c3c(c2O)[C@@H]2Oc4c(Cc5c(O)c(O)c(O)c(C(C)=O)c5O)c(O)c(C(=O)/C=C/c5ccc(O)cc5)c5c4[C@H](CC(C)(C)O5)[C@H]2C(C)(C)O3)c1O | – | – | – | – | – | – | – | – | – | – | – | – | – | MIC50 (Aspergillus fumigatus [20]): 16 µg/mL (≈ 15 µM); MIC50 (Cryptococcus neoformans [2]): 4 to 8 µg/mL (≈ 3.75 to 7.5 µM) |
| O=c1c(-c2ccc(O)cc2)coc2cc(O)cc(O)c12 [GENISTEIN] | – | – | – | – | – | – | – | – | – | – | – | – | – | MIC (Trichophyton rubrum [26]): > 1000 µg/mL; MIC (Trichophyton rubrum [27]): > 1000 µg/mL |
| C=CC(C)(C)c1cc([C@@H]2CC(=O)c3c(O)cc(O)c(CC=C(C)C)c3O2)c(O)cc1O | – | – | – | – | – | – | – | – | – | – | – | – | – | IC50 (Candida albicans [1]): 121 µM; MIC (Candida albicans [1]): 121 µg/mL (≈ 285 µM) |
